According to patent US7235649B2, “Isolated GRP94 ligand binding domain polypeptide and nucleic acid encoding same, and screening methods employing same” (Duke University, priority 2000, dated 2007):

Assays:
Hsp90 [1] = experiment: [32P]ATP binding assay (nitrocellulose filtration); parameters: species or system rat; conditions: 50 μM [32P]ATP, 1 hour on ice
Procedure: Hsp90 was purified from rat liver cytosol as follows. Cytosol was adjusted to 30% ammonium sulfate and stirred for 60 min on ice. The solution was centrifuged at 20,000×g in a Sorvall SS34 rotor for 15 minutes and the supernatant collected and filtered through a 0.22 μm filter. The filtered supernatant was supplemented with protease inhibitors (1 μg/ml pepstatin, 1 μg/ml leupeptin, 20 μg/ml SBTI, and 0.5 mM PMSF) and loaded onto a phenyl-SUPEROSE™ HR10/10 column (Amersham Pharmacia Biotech of Piscataway, N.J.). After washing, the bound proteins were eluted with a gradient of 30–0% saturated ammonium sulfate in 10 mM Tris/HCl, pH 7.5, 1 mM EGTA, 0.5 mM DTT and the Hsp90 containing fractions were identified by SDS-PAGE. The Hsp90 containing fractions were then pooled and dialyzed 2×3 hr against 2 L of low salt buffer (10 mM NaCl, 25 mM Tris, pH 7.8). The dialyzed sample was then filtered through a 0.22 μm filter, and injected onto a MONO-Q™ HR 10/10 column (Amersham Pharmacia Biotech of Piscataway, N.J.) equilibrated in low salt buffer. The column was eluted with a gradient of 10 mM–750 mM NaCl in 25 mM Tris, pH 7.8. The Hsp90-containing fractions were identified by SDS-PAGE and pooled.
ATP Binding Assay. Six μg of GRP94, BiP, and Hsp90 was incubated with 50 μM yZ[^32P] […] Filters were washed with 3×2 mL of ice cold buffer B, placed in 5 mL of scintillation fluid, vortexed, and counted.

BiP = experiment: [32P]ATP binding assay (nitrocellulose filtration); parameters: species or system porcine; conditions: 50 μM [32P]ATP, 1 hour on ice
Procedure: BiP was purified by the following procedure. A lumenal protein fraction obtained from porcine pancreas rough microsomes was cycled overnight through a 1 ml ADP-agarose and a 1 ml ATP-agarose (Sigma Chemical Co. of St. Louis, Mo.) column coupled in series. […] The BiP containing fractions were identified by SDS-PAGE, and dialyzed against 2×4 L of buffer A (110 mM KOAc, 20 mM NaCl, 25 mM K-Hepes, pH 7.2, 2 mM Mg(OAc)2 0.1 mM CaCl2). The protein sample was then applied to a SUPERDEX® 26/60 column (Amersham Pharmacia Biotech of Piscataway, N.J.) equilibrated in buffer A, and the BiP containing fractions, again identified by SDS-PAGE, were pooled and concentrated by centrifugal ultrafiltration (CENTRICON-30®; Amicon of Beverly, Mass.).
(§1) ATP Binding Assay. Six μg of GRP94, BiP, and Hsp90 was incubated with 50 μM yZ[^32P] ATP (1000 μCi/μmol) (Amersham Pharmacia Biotech of Piscataway, N.J.) in buffer B on ice for 1 hour. Nitrocellulose filters (BA85) (Schleicher & Schuell of Keene, N.H.) were individually wet in buffer B before use, and bound versus free [^32P]-ATP was separated by vacuum filtration. Filters were washed with 3×2 mL of ice cold buffer B, placed in 5 mL of scintillation fluid, vortexed, and counted.

[2] = target: N-terminal nucleotide binding pocket of Hsp90 (Saccharomyces cerevisiae, UniProt P02829); conditions: Prodromou et al. (1997); read-out: Kd of ATP for Hsp90; cited from earlier work
GRP94 [3] = target: T1, GRP94 (Sus scrofa, UniProt Q29092); experiment: Tryptophan fluorescence (ligand-induced conformational change); conditions: 50 μM NECA, 50 μM geldanamycin, 2.5 mM ATP or 2.5 mM ADP, 1 hour at 37° C.
Procedure: Tryptophan Fluorescence. Tryptophan fluorescence measurements were conducted in a FLUOROMAX™ spectrofluorometer (Spex Industries, Inc. of Edison, N.J.) with the slit widths set to 1 nm for both excitation and emission. […] All spectra were corrected by subtraction of buffer or buffer plus ligand samples. […] Samples were then cooled to room temperature, transferred to a quartz cuvette, and the spectra collected.

GRP94 [4] = target: T1, GRP94; experiment: [32P]ATP binding assay (nitrocellulose filtration); parameters: GRP94 was purified from porcine pancreas rough microsomes; from tissue; host or cells: porcine pancreas rough microsomes; species or system porcine; conditions: 50 μM [32P]ATP, 1 hour on ice
Procedure: as §1

GRP94 [5] = target: T1, GRP94; experiment: [3H]-NECA competitive displacement assay; assay type: binding, porcine; parameters: GRP94 was purified from porcine pancreas rough microsomes; from tissue; host or cells: porcine pancreas rough microsomes
HSP90 [6] = experiment: Conformational analysis by tryptic proteolysis and SDS-PAGE; assay type: biochemical; conditions: bis-ANS treatment
Procedure: Conformational Analysis by Proteolysis. […] Samples were then combined with 0.1% trypsin and digested for 30 minutes at 37° C. An equal volume of SDS-PAGE sample buffer was added and the samples were snap frozen in liquid nitrogen. Immediately prior to gel analysis, samples were thawed and boiled for 5 minutes. […] Gels were fixed and stained with Coomassie Blue.

GRP94 [7] = target: T1, GRP94; experiment: Fluorophore binding reactions with native or heat shocked GRP94 (fluorescence emission)
GRP94 [8] = target: T1, GRP94; experiment: Conformational analysis by tryptic proteolysis and SDS-PAGE; assay type: biochemical, porcine; parameters: GRP94 was purified from porcine pancreas rough microsomes; from tissue; host or cells: porcine pancreas rough microsomes; conditions: 5 μM GRP94, 50 μM bis-ANS one hour at 37° C., 0.1% trypsin
GRP94 [9] = target: T1, GRP94; experiment: Blue native polyacrylamide gel electrophoresis (oligomeric state); assay type: biochemical, porcine; parameters: GRP94 was purified from porcine pancreas rough microsomes; from tissue; host or cells: porcine pancreas rough microsomes; conditions: ten-fold molar excess of bis-ANS
Procedure: Native Blue Electrophoresis. The oligomeric state of GRP94 was assayed by blue native polyacrylamide gel electrophoresis (BN-PAGE) as described by Schagger et al. (1994) Anal Biochem 217:220–230. GRP94 was either heat shocked or exposed to a 10-fold molar excess of bis-ANS for the indicated times. Samples were then dissolved in 15% glycerol and loaded onto 5–18% gradient gels with 0.02% Coomassie Brilliant Blue in the cathode buffer. Gels were run at 4° C., stained with Coomassie Blue, de-stained and dried.
When purified from tissue, GRP94 exists as a homodimer, as described by Wearsch & Nicchitta (1996a) Prot Express Purif 7(1):114–21; Nemoto et al. (1996) J Biochem 120:249–256. Following heat shock however, GRP94 forms higher molecular weight complexes, as described by Wearsch et al. (1998) Biochemistry 37:5709–5719. To further characterize the effects of bis-ANS on GRP94 structure, the oligomerization states of native, heat shocked and bis-ANS treated GRP94 were assayed by the blue native polyacrylamide gel electrophoresis (BN-PAGE) technique described by Schagger et al. (1994). In these experiments, GRP94 was incubated with bis-ANS or briefly heat shocked and subsequently incubated at 37° C. The samples were then analyzed by BN-PAGE. […] However, exposure to heat shock causes a relatively rapid formation of tetramers, hexamers, and octamers (FIG. 4, lanes 2–4).

GRP94 [10] = target: T1, GRP94; experiment: Far-UV circular dichroism; assay type: biochemical, porcine; parameters: GRP94 was purified from porcine pancreas rough microsomes; from tissue; host or cells: porcine pancreas rough microsomes; conditions: 1 μM GRP94, 10 μM bis-ANS 2 hours
Procedure: Circular Dichroism Measurements. Far-UV CD spectrometry was performed on an AVIV Associates 62DS™ circular dichroism spectrometer (AVIV Associates of Lakewood, N.J.). Samples were analyzed in a 1 mm path length quartz cuvette at 37° C. GRP94 samples (1 μM) were prepared in standard phosphate buffered saline solution as buffer A produced unacceptable dynode voltages in the relevant region of the spectrum. GRP94 was incubated with 10 μM bis-ANS for 2 hours at 37° C. prior to obtaining spectra. Spectra were recorded from 300 to 195 nm. The α-helical content of GRP94 was calculated from the molar ellipticity at 222 nm. See Myers & Jakoby (1975) J Biol Chem 250:3785–3789.
To gain further insight into the nature of the bis-ANS dependent conformational change, GRP94 was subjected to heat shocked or treated with bis-ANS and far-UV CD spectra obtained (FIG. 5).

GRP94 [11] = target: T1, GRP94; experiment: Identification of the bis-ANS binding site by photo-crosslinking, trypsin digestion and Edman sequencing; parameters: GRP94 was purified from porcine pancreas rough microsomes; from tissue; host or cells: porcine pancreas rough microsomes; species or system porcine; conditions: 50 μM bis-ANS photo-crosslinked 15 minutes on ice
GRP94 [12] = target: T1, GRP94; experiment: Citrate synthase thermal aggregation assay (GRP94 chaperone activity); assay type: biochemical, porcine; parameters: GRP94 was purified from porcine pancreas rough microsomes; from tissue; host or cells: porcine pancreas rough microsomes; conditions: 1 μM GRP94 preincubated two hours with 10 μM bis-ANS, 0.15 μM citrate synthase, 43° C.
Procedure: Citrate Synthase Aggregation Assays. The effects of GRP94 on the thermal aggregation of citrate synthase were assayed by the methods described by Buchner et al. (1998) Methods Enzymol 290:323–338. Samples containing no protein, or GRP94 (1 μM), were incubated in 40 mM HEPES pH 7.5 for two hours at 37° C. with either 0.2% DMF or 10 μM bis-ANS. The samples were then warmed to 43° C. for five minutes and placed in a spectrofluorometer thermostatted at 43° C. Citrate synthase was then added to 0.15 μM final concentration and the thermal aggregation of the enzyme followed by light scattering. Excitation and emission wavelengths were both 500 nm with 2 nm slit width. The time course of citrate synthase aggregation was followed for 1000 seconds.
To determine if the bis-ANS-dependent conformational changes in GRP94 were of functional significance, the molecular chaperone activities of native, heat shocked and bis-ANS treated GRP94 were evaluated in a thermal aggregation assay, as described by Jakob et al. (1995) J Biol Chem 270:7288–7294 and Buchner et al. (1998) Methods Enzymol 290:323–338. […] Following experimental treatment of the GRP94, reactions were equilibrated at 43° C., citrate synthase then added and aggregation, as represented by light scattering, was measured.

GRP94 [13] = target: T1, GRP94; assay type: biochemical, porcine; parameters: GRP94 was purified from porcine pancreas rough microsomes; from tissue; host or cells: porcine pancreas rough microsomes; conditions: bis-ANS treated GRP94, ten-fold molar excess [125I]-VSV8, 30 min at 37° C.

T1 sequence (Q29092 22-804): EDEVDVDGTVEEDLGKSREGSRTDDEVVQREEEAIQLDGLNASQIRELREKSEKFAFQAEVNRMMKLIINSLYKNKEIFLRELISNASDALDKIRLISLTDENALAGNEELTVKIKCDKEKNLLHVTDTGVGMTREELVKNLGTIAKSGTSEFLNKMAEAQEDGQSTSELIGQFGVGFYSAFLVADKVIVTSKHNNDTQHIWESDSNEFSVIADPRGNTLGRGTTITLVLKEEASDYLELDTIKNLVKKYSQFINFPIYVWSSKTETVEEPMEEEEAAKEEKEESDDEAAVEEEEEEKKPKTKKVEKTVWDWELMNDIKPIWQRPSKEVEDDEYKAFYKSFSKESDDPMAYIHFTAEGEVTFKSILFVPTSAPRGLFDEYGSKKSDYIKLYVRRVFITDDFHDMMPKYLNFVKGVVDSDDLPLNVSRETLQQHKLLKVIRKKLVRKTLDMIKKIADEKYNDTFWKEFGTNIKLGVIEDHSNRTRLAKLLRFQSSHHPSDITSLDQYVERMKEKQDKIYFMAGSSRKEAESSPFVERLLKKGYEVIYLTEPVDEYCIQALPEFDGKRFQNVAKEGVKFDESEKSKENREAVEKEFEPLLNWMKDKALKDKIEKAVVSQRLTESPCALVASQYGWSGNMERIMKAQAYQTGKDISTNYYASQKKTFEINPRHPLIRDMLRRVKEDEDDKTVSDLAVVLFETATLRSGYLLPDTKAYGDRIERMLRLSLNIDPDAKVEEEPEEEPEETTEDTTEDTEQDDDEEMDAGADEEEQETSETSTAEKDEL
Sequence of N-terminal nucleotide binding pocket of Hsp90 (P02829 whole entry): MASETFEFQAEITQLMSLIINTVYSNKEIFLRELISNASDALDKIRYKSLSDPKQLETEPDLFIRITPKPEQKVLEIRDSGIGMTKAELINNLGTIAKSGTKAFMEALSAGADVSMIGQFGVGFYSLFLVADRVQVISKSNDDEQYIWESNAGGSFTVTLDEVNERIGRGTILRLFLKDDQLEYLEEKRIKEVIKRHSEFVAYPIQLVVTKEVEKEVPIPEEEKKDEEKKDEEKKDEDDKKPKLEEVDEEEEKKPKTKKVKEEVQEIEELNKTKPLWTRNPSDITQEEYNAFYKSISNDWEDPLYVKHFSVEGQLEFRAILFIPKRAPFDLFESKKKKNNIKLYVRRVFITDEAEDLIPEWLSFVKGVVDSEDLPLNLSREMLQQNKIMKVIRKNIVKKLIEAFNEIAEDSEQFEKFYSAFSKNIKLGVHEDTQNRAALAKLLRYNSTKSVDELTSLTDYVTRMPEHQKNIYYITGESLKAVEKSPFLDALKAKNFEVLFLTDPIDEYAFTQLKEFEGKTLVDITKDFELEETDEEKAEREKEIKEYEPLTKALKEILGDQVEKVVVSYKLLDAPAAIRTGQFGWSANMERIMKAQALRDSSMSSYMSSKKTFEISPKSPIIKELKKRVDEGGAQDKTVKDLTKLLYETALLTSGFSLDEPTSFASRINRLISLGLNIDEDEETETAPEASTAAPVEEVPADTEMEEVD

Q: What does the source list for `Nc1ncnc2c1ncn2[C@@H]1O[C@H](COP(=O)(O)OP(=O)(O)OP(=O)(O)O)[C@@H](O)[C@H]1O` [ATP]?
A: ATP binding to Hsp90 (Hsp90 [1]): no ATP binding was observed; ATP binding to BiP (BiP): displayed the expected ATP binding activity; Kd [2]: 132 µM; change of GRP94 tryptophan fluorescence (GRP94 [3]): the tryptophan fluorescence was decreased; ATP binding to GRP94 (GRP94 [4]): no ATP binding was observed; molar excess of competitor required for 50% inhibition of [3H]-NECA binding (GRP94 [5]; 20 nM [3H]-NECA): ~1000 -fold molar excess; competition with [3H]-NECA for binding to GRP94 (adenosine ligands) (GRP94 [5]; 20 nM [3H]-NECA, nominal (80 μM) Mg2+): effectively competed; effect of excess Mg2+ on binding to GRP94 (GRP94 [5]; 10 mM Mg(OAc)2 vs nominal endogenous magnesium): markedly stimulated; extent of competition of NECA binding to GRP94 (GRP94 [5]; FIGS. 10A–10C): wholly competed; nucleoside base specificity: binding by [3H]-NECA competitive displacement (GRP94 [5]; competitors all at 50 μM, 20 nM [3H]-NECA): could bind; relative affinities for GRP94 in presence of Mg2+ (GRP94 [5]; excess Mg2+): nearly identical relative affinities; efficacy of competing NECA binding, ATP relative to ADP (GRP94 [5]; nominal Mg2+): eight-fold higher efficacy than ADP

Q: For “4,4′-dianilino-1,1-binaphthyl-5,5-disulfonic acid [bis-ANS]”, which “trypsin proteolysis pattern of HSP90 (conformation)” value (HSP90 [6]) is on record?
A: Its value is “Essentially identical proteolysis patterns were observed following either heat shock or bis-ANS treatment of HSP90”.

Q: What about the “fluorophore binding to native GRP94” value (GRP94 [7]; 0.5 μM native GRP94, 5 μM probe, 30 min at 37° C.) of the same molecule?
A: Its value is “bi-phasic”.

Q: What about the “saturability of bis-ANS binding” value (GRP94 [7]; heat shocked GRP94) of the same molecule?
A: Its value is “binds in a saturable manner to heat shocked GRP94”.

Q: And the “near maximal bis-ANS binding, molar excess of GRP94 monomer over bis-ANS” value (GRP94 [7]; heat shocked GRP94, fixed bis-ANS 50 nM)?
A: The value was 20 -fold molar excess.

Q: What about the “bis-ANS binding to native GRP94 following extended incubations” value (GRP94 [7]; native GRP94, extended incubation (20 hours)) of the same molecule?
A: Its value is “a level of fluorophore binding similar to that seen with heat shocked GRP94 was observed”.

Q: And the Kd (GRP94 [7]; read-out: half maximal binding of bis-ANS to heat shocked GRP94, fixed bis-ANS 50 nM, increasing heat shocked GRP94, emission 475 nm)?
A: The Kd was 110 nM.

Q: What about the “trypsin proteolysis pattern of GRP94 (conformation)” value (GRP94 [8]) of the same molecule?
A: The value was “substantially reduced recovery of the prominent proteolysis products”.

Q: What about the “GRP94 quaternary structure (oligomerization)” value (GRP94 [9]) of the same molecule?
A: The value was “induces changes in the quaternary structure of GRP94 that mimic those seen upon heat shock”.

Q: What about the “GRP94 secondary structure (CD spectra)” value (GRP94 [10]) of the same molecule?
A: The value was “does not alter GRP94 secondary structure”.

Q: What about the “site of bis-ANS binding to GRP94” value (GRP94 [11]) of the same molecule?
A: The value was “residues 271–281 of the N-terminal domain of GRP94”.

Q: What about the “citrate synthase thermal aggregation in presence of compound-treated GRP94” value (GRP94 [12]) of the same molecule?
A: The value was “no thermal aggregation of citrate synthase was detectable”.

Q: What about the “stimulation of GRP94 peptide binding activity over native protein” value (GRP94 [13]) of the same molecule?
A: The value was “four to five-fold”.
